Our source for the T/C values is PubChem BioAssay AID330 (DTP/NCI, 2004).

Where “and” joins values, the source holds several entries; their conditions need not be identical. Identical values can stand only once. Inconclusive results and toxic doses are left out.

For the assay, the system named is P388 leukemia ip, CD2F1 mice, survival T/C. The assay can be described thus: NCI In Vivo Anticancer Drug Screen. Data for tumor model P388 Leukemia (intraperitoneal) in CD2F1 (CDF1) mice. The note with it: endpoint: median survival time, higher = longer survival. In short, it runs like this: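 Mice carrying the transplanted tumor received test compound or vehicle. Survival was recorded in each group, and the value is the treated-group measurement divided by that of the vehicle-treated control group.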

The mark [1] stands for this setting: dose: 12.5 mg/kg/injection, schedule: Q01DX009 (ip), vehicle: saline with Tween-80.
Setting [2] is: dose: 25.0 mg/kg/injection, schedule: Q01DX009 (ip), vehicle: saline with Tween-80.
Where [3] appears, read: dose: 50.0 mg/kg/injection, schedule: Q01DX009 (ip), vehicle: saline with Tween-80.
Where [4] appears, read: dose: 100.0 mg/kg/injection, schedule: Q01DX009 (ip), vehicle: saline with Tween-80.

Take `CC1CN1P(=O)(N1CCCC1)N1CC1C` (centres undefined): the T/C is 109 % of control (dose: 4.4 mg/kg/injection, schedule: Q01DX009 (ip), vehicle: saline); 120 % of control (dose: 6.6 mg/kg/injection, schedule: Q01DX009 (ip), vehicle: saline); 100 % of control (dose: 12.5 mg/kg/injection, schedule: Q04DX003 (ip), vehicle: saline); 150 % of control (dose: 25.0 mg/kg/injection, schedule: Q01DX009 (ip), vehicle: saline); 108 % of control (dose: 25.0 mg/kg/injection, schedule: Q04DX003 (ip), vehicle: saline); 166 % of control (dose: 66.0 mg/kg/injection, schedule: Q04DX003 (ip), vehicle: saline). In addition, the T/C reads like this: (dose: 100.0 mg/kg/injection, schedule: Q01DX009 (ip), vehicle: saline) 86 % of control; (dose: 100.0 mg/kg/injection, schedule: Q04DX003 (ip), vehicle: saline) 175 % of control.
In the case of `Clc1ccc(C(CCOc2ccccc2Br)Cn2ccnc2)c(Cl)c1` (centres undefined), the T/C is, setting by setting: under setting [1], 89 % of control; under setting [2], 90 % of control; under setting [3], 101 % of control and 94 % of control.
As for `CN(C)CCC(=O)C(=Cc1ccccc1)C(=O)CCN(C)C`, the T/C was 114 % of control (dose: 50.0 mg/kg/injection, schedule: Q01DX005 (ip), vehicle: saline); 99 % of control (dose: 100.0 mg/kg/injection, schedule: Q01DX005 (ip), vehicle: saline); 101 % of control (dose: 200.0 mg/kg/injection, schedule: Q01DX005 (ip), vehicle: saline).
For the compound `Nc1ccc(OCCNS(=O)(=O)c2cccc(S(=O)(=O)F)c2)c(Cl)c1`, the T/C runs as follows: (dose: 37.5 mg/kg/injection, schedule: Q01DX001 (ip), vehicle: saline with Tween-80) 95 % of control; (dose: 75.0 mg/kg/injection, schedule: Q01DX001 (ip), vehicle: saline with Tween-80) 95 % of control; (dose: 150.0 mg/kg/injection, schedule: Q01DX001 (ip), vehicle: saline with Tween-80) 90 % of control.
For `CC1(C)N=C(N)N=C(N)N1c1cccc(CCC(=O)Nc2ccc(S(=O)(=O)F)cc2)c1`, the T/C was 116 % of control and 118 % of control (dose: 18.8 mg/kg/injection, schedule: Q01DX009 (ip), vehicle: saline with Tween-80); 115 % of control and 118 % of control (dose: 37.5 mg/kg/injection, schedule: Q01DX009 (ip), vehicle: saline with Tween-80); 107 % of control (dose: 150.0 mg/kg/injection, schedule: Q01DX009 (ip), vehicle: saline with Tween-80).
As to `COc1ccc(C(O)c2ncccc2C)cc1OC` (centres undefined), the T/C is, setting by setting: (dose: 12.5 mg/kg/injection, schedule: Q01DX009 (ip), vehicle: water) 102 % of control; (dose: 25.0 mg/kg/injection, schedule: Q01DX009 (ip), vehicle: water) 94 % of control; (dose: 50.0 mg/kg/injection, schedule: Q01DX009 (ip), vehicle: water) 99 % of control; (dose: 100.0 mg/kg/injection, schedule: Q01DX009 (ip), vehicle: water) 100 % of control; (dose: 200.0 mg/kg/injection, schedule: Q01DX009 (ip), vehicle: water) 101 % of control.
As for `CC1CCC2(OC1)OC1CC3C4CC=C5CC(OC6OC(CO)C(OC7OC(C)C(OC8OC(C)C(O)C(O)C8O)C(O)C7O)C(O)C6OC6OC(C)C(O)C(O)C6O)CCC5(C)C4CCC3(C)C1C2C` (centres undefined), the T/C was 106 % of control (dose: 0.62 mg/kg/injection, schedule: Q01DX009 (ip), vehicle: saline); 91 % of control (dose: 1.25 mg/kg/injection, schedule: Q01DX009 (ip), vehicle: saline); 90 % of control (dose: 2.5 mg/kg/injection, schedule: Q01DX009 (ip), vehicle: saline).
On to `O=C1C2(Cl)C(Cl)=C(Cl)C1(Cl)C1(Cl)C(Cl)=C(Cl)C(=O)C21Cl` (centres undefined), for which the T/C was 104 % of control (dose: 10.0 mg/kg/injection, schedule: Q01DX009 (ip), vehicle: saline with Tween-80); 104 % of control (dose: 20.0 mg/kg/injection, schedule: Q01DX009 (ip), vehicle: saline with Tween-80); 100 % of control (dose: 40.0 mg/kg/injection, schedule: Q01DX009 (ip), vehicle: saline with Tween-80).
With `COC(=O)c1cnc(N)n1C`, the T/C (dose: 12.5 mg/kg/injection, schedule: Q01DX009 (ip), vehicle: distilled water + Tween-80) was 101 % of control.
Consider `CN1CCCC(C(O)c2ccccc2)S1(=O)=O` (centres undefined), for which the T/C runs as follows: under setting [3], 96 % of control; under setting [4], 96 % of control; (dose: 200.0 mg/kg/injection, schedule: Q01DX009 (ip), vehicle: saline with Tween-80) 101 % of control.
For the compound `CCOC(=O)C(=CNc1ccc2c(C)cc3ccc(C(=O)OCC)c(=O)n3c2n1)C(=O)OCC`, the T/C was 88 % of control (dose: 50.0 mg/kg/injection, schedule: Q01DX005 (ip), vehicle: Klucel (hydroxypropylcellulose) (HPC)) and 86 % of control (dose: 100.0 mg/kg/injection, schedule: Q01DX005 (ip), vehicle: Klucel (hydroxypropylcellulose) (HPC)).
As for `CCOC(=O)CN1CCCC(C(=O)CC2(O)C3(Cl)C4(Cl)C5(Cl)C(Cl)(Cl)C6(Cl)C4(Cl)C2(Cl)C6(Cl)C53Cl)C1` (centres undefined), the T/C was 97 % of control under setting [1], 98 % of control under setting [2], 101 % of control under setting [3] and 100 % of control under setting [4].
For the compound `Cc1ccc(C)n1-c1ccc(OCC(N)=O)cc1`, the T/C (dose: 60.0 mg/kg/injection, schedule: Q01DX005 (ip), vehicle: saline with Tween-80) is 104 % of control; the T/C (dose: 120.0 mg/kg/injection, schedule: Q01DX005 (ip), vehicle: saline with Tween-80) was 97 % of control; the T/C (dose: 240.0 mg/kg/injection, schedule: Q01DX005 (ip), vehicle: saline with Tween-80) is 90 % of control.
Turning to `Cn1nc(NC(=O)C(F)(F)F)c2ncc(-c3ccc(Cl)cc3)nc21`, the T/C (dose: 100.0 mg/kg/injection, schedule: Q04DX003 (ip), vehicle: saline with Tween-80) is 100 % of control; the T/C (dose: 200.0 mg/kg/injection, schedule: Q04DX003 (ip), vehicle: saline with Tween-80) is 90 % of control; the T/C (dose: 400.0 mg/kg/injection, schedule: Q04DX003 (ip), vehicle: saline with Tween-80) was 90 % of control.
As to `CC1(C)O[C@@H]2C[C@H]3[C@@H]4CCC5=CC(=O)C=C[C@]5(C)[C@@]4(F)[C@@H](O)C[C@]3(C)[C@]2(C(=O)CO)O1`, the T/C is 109 % of control under setting [1] and 109 % of control under setting [2].
